Laboratory results: PubChem BioAssay AID1963986 (Molecular Pharmacology Branch, DTP, NCI, 2024)
pIC50: −log10 of the molar value.

System: 171881-019-R-J1-PDC tumor spheroid viability
Assay: Anticancer human tumor 171881-019-R-J1-PDC patient-derived invasive breast carcinoma cell line growth inhibition [PI3K]
Conditions: spheroids with HUVEC and MSC; for pIC50: curve of first compound; for viability, T/C: stronger effect = lower value; active = viability on the fitted dose curve at most 10% of control; inactive = the rest
Summary of the method: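 Three cell types, namely tumor cells, endothelial cells and mesenchymal stem cells, formed each spheroid. Combinations with four PI3K inhibitors were screened at clinically achievable concentrations decreasing by half-log, and spheroid viability was recorded.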

[1] = second compound 0.00316 µM, first compound 0.0316 µM
[2] = second compound 0.00316 µM, first compound 0.1 µM
[3] = second compound 0.00316 µM, first compound 0.316 µM
[4] = second compound 0.00316 µM, first compound 1 µM
[5] = second compound 0.00316 µM, first compound 3.16 µM
[6] = second compound 0.00316 µM, first compound 10 µM
[7] = second compound 0.01 µM, first compound 0.0316 µM
[8] = second compound 0.01 µM, first compound 0.1 µM
[9] = second compound 0.01 µM, first compound 0.316 µM
[10] = second compound 0.01 µM, first compound 1 µM
[11] = second compound 0.01 µM, first compound 3.16 µM
[12] = second compound 0.01 µM, first compound 10 µM
[13] = second compound 0.0316 µM, first compound 0.0316 µM
[14] = second compound 0.0316 µM, first compound 0.1 µM
[15] = second compound 0.0316 µM, first compound 0.316 µM
[16] = second compound 0.0316 µM, first compound 1 µM
[17] = second compound 0.0316 µM, first compound 3.16 µM
[18] = second compound 0.0316 µM, first compound 10 µM
[19] = second compound 0.1 µM, first compound 0.0316 µM
[20] = second compound 0.1 µM, first compound 0.1 µM
[21] = second compound 0.1 µM, first compound 0.316 µM
[22] = second compound 0.1 µM, first compound 1 µM
[23] = second compound 0.1 µM, first compound 3.16 µM
[24] = second compound 0.1 µM, first compound 10 µM
[25] = second compound 0.316 µM, first compound 0.0316 µM
[26] = second compound 0.316 µM, first compound 0.1 µM
[27] = second compound 0.316 µM, first compound 0.316 µM
[28] = second compound 0.316 µM, first compound 1 µM
[29] = second compound 0.316 µM, first compound 3.16 µM
[30] = second compound 0.316 µM, first compound 10 µM
[31] = second compound 1 µM, first compound 0.0316 µM
[32] = second compound 1 µM, first compound 0.1 µM
[33] = second compound 1 µM, first compound 0.316 µM
[34] = second compound 1 µM, first compound 1 µM
[35] = second compound 1 µM, first compound 3.16 µM
[36] = second compound 1 µM, first compound 10 µM
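Also: spheroids exposed to compound for 7 days before viability read.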
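For viability, T/C in this document: 100% = DMSO vehicle-treated spheroids.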

CC1(C)CCC(CN2CCN(c3ccc(C(=O)NS(=O)(=O)c4ccc(NCC5CCOCC5)c([N+](=O)[O-])c4)c(Oc4cnc5[nH]ccc5c4)c3)CC2)=C(c2ccc(Cl)cc2)C1 + COc1c(OCCCN2CCOCC2)ccc2c3n(c(=NC(=O)c4cnc(N)nc4)nc12)CCN3
< 5.00: pIC50 (second compound 0.00316 µM)
> 7.50: pIC50 (second compound 0.0316 µM) | pIC50 (second compound 0.1 µM) | pIC50 (second compound 0.316 µM) | pIC50 (second compound 1 µM)
5.97: pIC50 (second compound 0.01 µM)
active: viability, T/C [19] 9.62% | viability, T/C [20] 8.56% | viability, T/C [21] 8.91% | viability, T/C [22] 8.46% | viability, T/C [23] 8.91% | viability, T/C [24] 7.62% | viability, T/C [25] 2.51% | viability, T/C [26] 1.88% | viability, T/C [27] 2.5% | viability, T/C [28] 2.1% | viability, T/C [29] 1.72% | viability, T/C [30] 1.63% | viability, T/C [31] 1.35% | viability, T/C [32] 0.89% | viability, T/C [33] 1.13% | viability, T/C [34] 0.95% | viability, T/C [35] 1.02% | viability, T/C [36] 0.92%
inactive: viability, T/C [1] 67.9% | viability, T/C [2] 71.5% | viability, T/C [3] 76.5% | viability, T/C [4] 75.8% | viability, T/C [5] 50.7% | viability, T/C [6] 56.9% | viability, T/C [7] 50.3% | viability, T/C [8] 54.2% | viability, T/C [9] 52.1% | viability, T/C [10] 50.6% | viability, T/C [11] 36.4% | viability, T/C [12] 46.5% | viability, T/C [13] 31.2% | viability, T/C [14] 27.1% | viability, T/C [15] 26.7% | viability, T/C [16] 31.9% | viability, T/C [17] 27.6% | viability, T/C [18] 27.7%

C[C@@H](NC(=O)c1ncnc(N)c1Cl)c1ncc(C(=O)Nc2cc(C(F)(F)F)c(Cl)cn2)s1 + COc1c(OCCCN2CCOCC2)ccc2c3n(c(=NC(=O)c4cnc(N)nc4)nc12)CCN3
5.63: pIC50 (second compound 0.00316 µM)
6.63: pIC50 (second compound 0.01 µM)
active: viability, T/C [18] 7.51% | viability, T/C [19] 9.3% | viability, T/C [20] 8.92% | viability, T/C [21] 5.88% | viability, T/C [22] 7.2% | viability, T/C [23] 4.61% | viability, T/C [24] 2.13% | viability, T/C [25] 2.53% | viability, T/C [26] 2.04% | viability, T/C [27] 2.28% | viability, T/C [28] 2.25% | viability, T/C [29] 1.53% | viability, T/C [30] 1.06% | viability, T/C [31] 1.22% | viability, T/C [32] 1.54% | viability, T/C [33] 1.62% | viability, T/C [34] 1.3% | viability, T/C [35] 0.85% | viability, T/C [36] 1.04%
> 7.50: pIC50 (second compound 0.0316 µM) | pIC50 (second compound 0.1 µM) | pIC50 (second compound 0.316 µM) | pIC50 (second compound 1 µM)
inactive: viability, T/C [1] 62.5% | viability, T/C [2] 78.9% | viability, T/C [3] 67.5% | viability, T/C [4] 62.2% | viability, T/C [5] 45.9% | viability, T/C [6] 27.2% | viability, T/C [7] 50.9% | viability, T/C [8] 49.9% | viability, T/C [9] 51.3% | viability, T/C [10] 43.4% | viability, T/C [11] 29.9% | viability, T/C [12] 17.9% | viability, T/C [13] 27.5% | viability, T/C [14] 26.9% | viability, T/C [15] 26% | viability, T/C [16] 20.8% | viability, T/C [17] 16%
